Several values for one entry are separate records, joined by “and”; a condition that tells them apart may be missing. Identical values can stand only once. Like-named read-outs stand apart in the source and are kept apart here.
System: Tetrabenazine-Induced Ptosis
Test: Blockade of Tetrabenazine-Induced Ptosis in Mice (antidepressant activity)
Format: in vivo, mice (ICR-DUB strain)
Settings: female mice; for ED50: Mus musculus
Protocol: Thirty minutes later the presence or absence of complete eyelid closure (ptosis) is assessed in each animal. For compounds which produced blockage of ptosis in all animals, and ED50 value is obtained using a minimum of three geometrically spaced dosages with five mice/dose.

[1] = IP, 30 min before tetrabenazine 32 mg/kg IP, test compounds in text, read-out: ED50 (confidence limits)
[2] = ip, read-out: ED50 (95% confidence limits), IP, 30 min before tetrabenazine 32 mg/kg IP, Table 1 reference agents, probit analysis

SMILES | ED50 [1] [mg/kg] | ED50 [2] [mg/kg] | ED50 (95% confidence limits) (IP, 30 min before tetrabenazine 32 mg/kg IP, Table 1 reference agents, probit analysis)
CC(C)N1CC(=C(c2ccccc2)c2ccccc2)C1.O=C(O)C(=O)O [1-isopropyl-3-diphenylmethyleneazetidine oxalate] | 2.18 | – | –
CN1CC(=C(c2ccccc2)c2ccccc2)C1 [1-methyl-3-diphenylmethyleneazetidine] | 1.48 | – | –
CCOc1ccccc1OCC1CNCCO1 (centres unmarked) [viloxazine] | – | 1.5 | –
CN(C)CCCN1c2ccccc2CCc2ccccc21 [imipramine] | – | 0.3 | 0.4 (0.2-0.9) mg/kg and 0.5 (0.2-1.2) mg/kg

From patent US4242261A, “Production of methylene-cycloamines” (A. H. Robins Company, Inc., priority 1979, dated 1980)
